In US10195197B2, “Combination therapy with glutaminase inhibitors” (Calithera Biosciences, Inc., priority 2016, dated 2019):

Test system: JIMT-1 tumors
Assay: JIMT-1 xenograft model, antitumor efficacy (in vivo TNBC model)
Details: single agent paclitaxel, five doses at 10 mg/kg every other day at start of study; initial regression followed by rapid regrowth; P=0.0002
Method: In the JIMT-1 xenograft model, the antitumor efficacy was evaluated by treating established tumors (125 mm^3 at the start of dosing) with CB-839 both as a single agent and in combination with paclitaxel, a standard-of-care chemotherapeutic agent for the treatment of TNBC. The regimen for paclitaxel (five doses at 10 mg/kg delivered every other day at the start of study) was chosen to provide suboptimal efficacy to ensure a window to evaluate the potential impact of combination treatment.

CC(=O)O[C@H]1C(=O)[C@@]2(C)[C@H]([C@H](OC(=O)c3ccccc3)[C@]3(O)C[C@H](OC(=O)[C@H](O)[C@@H](NC(=O)c4ccccc4)c4ccccc4)C(C)=C1C3(C)C)[C@]1(OC(C)=O)CO[C@@H]1C[C@@H]2O [paclitaxel]
TGI relative to vehicle control at the end of study: 73%
